Source: patent US7579006B2, “Method of treating immune pathologies with low dose estrogen” (Oregon Health and Science University, priority 2000, dated 2009)

Assays:
[1] = system: DLN cells; assay: PLP 139-151 induced cytokine production by DLN cells (ELISA); type: in vivo, mice; conditions: 48-72 hours after PLP 139-151 stimulation
Method: Cytokine detection by ELISA. DLN cells were cultured at 4×10^6/ml and stimulated with the appropriate antigen in 24 well culture plates. Cell culture supernatants were recovered between 48-72 hr and frozen at −70° C. until needed for the cytokine assay. Measurement of cytokines was performed by ELISA using cytokine specific capture and detection antibodies (Pharmingen). Standard curves for each assay were generated using recombinant mouse cytokines (Pharmingen), and the concentration of cytokines in the cell supernatants was determined by interpolation from the appropriate standard curve. IFN-γ, TNF-α and IL-12 were chosen as representative Th1 cytokines, while IL-4 and IL-10 were measured as representative Th2 cytokines.
To determine if low dose estrogen therapy altered cytokine secretion patterns, DLN cells were prepared from individual mice at the peak of clinical EAE and cytokine levels were measured 48-72 hours after in vitro stimulation with PLP 139-151. IFN-γ, IL-12, and TNF-α were used as representative Th1 cytokines while IL-4, and IL-10 were used as representative Th2 cytokines. […] Despite the lack of statistical significance, the trend towards higher Th1 and lower Th2 cytokines points towards a subtle shift in the Th1/Th2 balance. The shift can be seen more clearly when the cytokine response of each individual mouse is plotted as a ratio of IFN-γ to IL-10 (FIG. 5C). There was a marked decrease in the frequency of high Th1 responder mice in the E2 and E3 treated groups when compared to placebo animals that approached significance (p=0.09 for the 5.0 mg E3 treated mice). Additionally, no informative trends were detected in IL-4 secretion (FIG. 5D), and TNF-α secretion was very often below the limits of detection for the assay (<31.25 pg/ml). Modest changes in cytokine responses induced by low dose estrogen therapy were also observed in the B10.PL model and were consistent with the data described for the SJL model.

[2] = system: ovariectomized Tg female mice; assay: EAE in ovariectomized BV8S2 Tg female mice; type: in vivo
[3] = 0.36 mg pellet, OVX Tg females (Example III)

`C[C@]12CC[C@@H]3c4ccc(O)cc4CC[C@H]3[C@@H]1CC[C@@H]2O` [17β-estradiol] was tested, and the “IL-10 secretion by DLN cells” value [1] was “modest increase”, the “IL-12 secretion by DLN cells” value [1] was “small decrease” and the “secretion of IFN-γ by DLN cells” value ([1]; p>0.10) was “consistently lower”. For the same compound, the CDI [2, 3] was 40.0 ± 8.5, the Incidence [2, 3] was 8/11 and the Onset [2, 3] was 16.5 ± 2.3. The Peak [2, 3] was 2.6 ± 0.6, the “Average CDI (10-30)” value ([2]; Ovx Tg females) was 40.0 ± 22.1^B and the Incidence ([2]; Ovx Tg females) was 11/15. The Mortality ([2]; Ovx Tg females) was 4/15, the Onset ([2]; Ovx Tg females) was 13.6 ± 1.5 and the Peak ([2]; Ovx Tg females) was 3.5 ± 0.8.
